# Measurements reported in patent US20140127235A1, “TARGETING HK alpha FOR CONTROLLING BLOOD PRESSURE AND REGULATING ELECTROLYTE BALANCE” (UNIVERSITY OF FLORIDA RESEARCH FOUNDATION, INC., priority 2011, published 2014).
# Experiments:
# Type in all cases: in vivo, mouse
# [1] = Time course of the physiological effect of DOCP treatment in wild type mice (body weight, blood electrolytes); details: for Change in BW (%) / Blood [Cl−] / Blood [HCO3−] / Blood [K+] / Blood [Na+]: wild type mice; for Change in BW (%): DOCP 1.7 mg i.m.
# Procedure: A primary goal of the study was to characterize the temporal changes in body weight, Na^+, K^+, and acid-base homeostasis during chronic mineralocorticoid excess. Body weight and blood electrolytes were measured over an eight day time course in untreated (control) mice and those treated with DOCP (1.7 mg) (Table 1).
# (§1) Mice were fed normal lab chow, given free access to water, and given an i.m. injection of 1.7 mg DOCP (Percorten V, Novartis Pharmaceuticals). For perfusion and expression studies, mice were sacrificed with Na^+ pentobarbital (i.p. 120 mg/kg) followed by cervical dislocation. For time course experiments, another group of animals were anesthetized with 3-4% isoflurane and aortic blood was collected into a heparinized syringe for immediate analysis of electrolytes and blood gases (Nova pHOx Plus analyzer, Nova Biomedical). For high K^+ diet studies, mice were given a normal, powdered diet (TD99131, Teklad) supplemented with KCl to equal 5% K^+ which was then made as a gel. Half of the mice were treated with DOCP. Blood and tissues were collected as in the time course experiments. For urinalysis experiments, mice were housed in metabolic cages for thirteen days and fed a normal gel diet with free access to a water bottle. On day five, mice were treated with DOCP as above. Urine and feces were collected daily. Urine electrolytes were measured on a clinical analyzer (Nova 16 analyzer, Nova Biomedical) and fecal electrolytes were measured on a digital flame photometer (Model 2655-00, Cole-Parmer).
# HKα2 mRNA = assay: Real time PCR of renal HKα2 mRNA expression in DOCP-treated mice
# Description: The principal mechanism of mineralocorticoid action is through modulation of target gene transcription.^15 Therefore, the next experiments evaluated the effect of DOCP on renal HKα1 and HKα2 mRNA expression. Real time quantitative PCR was used to investigate changes in steady state mRNA levels of H^+,K^+-ATPase α subunits, HKα1 and HKα2, in cortex, outer medulla, and inner medulla of control and DOCP-treated mice.
# Deficits in K^+ homeostasis have long been known to stimulate H^+,K^+-ATPase activity and HKα subunit expression. Therefore, the next experiments investigated whether the decreases in blood [K^+] observed in DOCP-treated mice were responsible for the stimulation of HKα2 mRNA expression. For this experiment, mice were fed a high K^+ diet and then left untreated (control) or given DOCP treatment. Body weight and blood electrolytes were measured eight days after treatment and kidneys were collected for analysis of HKα, and HKα2 mRNA expression by real time PCR. A high K^+ diet abrogated the effect of DOCP on body weight gain, blood [K^+], [Cl^−], and [HCO3^−] in mice (Table 3). Similarly, the stimulation of HKα, or HKα2 mRNA expression with DOCP was absent in mice fed a high K^+ diet (FIGS. 3C and 3D).
# RNA was recovered from cortex, medulla, and inner medulla with TRIzol reagent (Invitrogen). RNA was treated with DNase 1 (Ambion DNA Free) and converted to cDNA using SuperScript III (Invitrogen). For real time quantitative PCR, 20 ng cDNA was used to quantify mRNA expression with TaqMan Gene Expression (Applied Biosystems) primer/probe sets for HKα1 (Atp4a, Mm00444423_m1), HKα2 (Atp12a, Mm0131809_m1), and β-actin (Actb, Mm00607939_s1). Cycle threshold (Ct) values were normalized to β-actin, and relative expression (control set to 100%) was calculated by the ΔΔCt method.^28
# [2] = Effect of high K+ (5%) diet on physiological response of wild type mice to DOCP treatment; details: eight days after DOCP
# Procedure: Deficits in K^+ homeostasis have long been known to stimulate H^+,K^+-ATPase activity and HKα subunit expression. […] For this experiment, mice were fed a high K^+ diet and then left untreated (control) or given DOCP treatment. Body weight and blood electrolytes were measured eight days after treatment and kidneys were collected for analysis of HKα, and HKα2 mRNA expression by real time PCR.
# as §1
# [3] = DOCP treatment of wild type, HKα1−/− and HKα1,2−/− mice: body weight, blood electrolytes, urinary and fecal electrolyte excretion
# Description: In a separate study, the effect of DOCP treatment of body weight change, blood electrolytes, and urinary and fecal electrolyte excretion was examined in wild type, HKα1^−/−, and HKα1,2^−/− mice on a normal diet.
# In the context of whole animal physiology, it is important to examine the overall electrolyte balance as the […] of urinary and fecal excretion subtracted from the intake of that electrolyte.
# as §1
# [4] = Survival of DOCP-treated WT and HKα1,2−/− mice over 60 days; details: two injections of DOCP on day zero and day 57
# Description: These animals all received two injections of DOCP on day zero and day 57. Four of the HKα1,2^−/− mice died at day's nine 46, 47, and 59 for an overall survival at 60 days of 57% for the HKα1,2^−/− mice whereas there were no deaths in the nine WT animals X^2 (log-rank): 4.554 (P<0.05).
compound,measurement,setting,value
"CC(C)(C)C(=O)OCC(=O)[C@H]1CC[C@H]2[C@@H]3CCC4=CC(=O)CC[C@]4(C)[C@H]3CC[C@]12C [DOCP, desoxycorticosterone pivalate]",Change in BW (%),[1]; Day 2,0.06 ± 1.2 (7) %
same,Change in BW (%),[1]; Day 4,2.0 ± 1.2 (7) %
same,Change in BW (%),[1]; Day 6,"5.4 ± 1.4 (7)**^,† %"
same,Change in BW (%),[1]; Day 8,"6.1 ± 1.2 (7)**^,† %"
same,Blood [Cl−],[1]; Day 2 of DOCP,120 ± 1.8 (3) mM
same,Blood [HCO3−],[1]; Day 2 of DOCP,19 ± 0.87 (4) mM
same,Blood [K+],[1]; Day 2 of DOCP,3.5 ± 0.12 (4) mM
same,Blood [Na+],[1]; Day 2 of DOCP,150 ± 1.3 (3) mM
same,Blood [Cl−],[1]; Day 4 of DOCP,116 ± 0.95 (4) mM
same,Blood [HCO3−],[1]; Day 4 of DOCP,20 ± 1.2 (4) mM
same,Blood [K+],[1]; Day 4 of DOCP,3.5 ± 0.17 (4) mM
same,Blood [Na+],[1]; Day 4 of DOCP,153 ± 1.8 (4) mM
same,Blood [Cl−],[1]; Day 6 of DOCP,117 ± 0.35 (3) mM
same,Blood [HCO3−],[1]; Day 6 of DOCP,20 ± 0.53 (3) mM
same,Blood [K+],[1]; Day 6 of DOCP,2.9 ± 0.21 (3) mM
same,Blood [Na+],[1]; Day 6 of DOCP,153 ± 0.80 (3) mM
same,Blood [Cl−],[1]; Day 8 of DOCP,"111 ± 0.82 (3)*^,**^,†,‡ mM"
same,Blood [HCO3−],[1]; Day 8 of DOCP,23 ± 2.0 (3) mM
same,Blood [K+],[1]; Day 8 of DOCP,"2.8 ± 0.07 (3)*^,† mM"
same,Blood [Na+],[1]; Day 8 of DOCP,150 ± 0.41 (3) mM
same,decrease in blood [Cl−],"[1]; wild-type mice, eight days of DOCP treatment",approximately 7 mM
same,HKα2 mRNA expression,"HKα2 mRNA; cortex, eight days after DOCP, normal diet",did not affect
same,"HKα2 mRNA levels, increase","HKα2 mRNA; inner medulla, eight days after DOCP, normal diet",as much as five-fold
same,stimulation of HKα1 or HKα2 mRNA expression with DOCP,HKα2 mRNA; mice fed a high K+ diet,absent
same,"HKα2 mRNA levels, increase","HKα2 mRNA; outer medulla, eight days after DOCP, normal diet",more than two-fold
same,Blood [Cl−],[2],121 ± 1.30 mM
same,Blood [HCO3−],[2],18.2 ± 1.01 mM
same,Blood [K+],[2],4.30 ± 0.18 mM
same,Blood [Na+],[2],151 ± 0.88 mM
same,Body weight change,[2],-0.17 ± 0.27 g
same,effect of DOCP to decrease blood [Cl−] and increase blood [HCO3−],"[3]; HKα1,2−/− mice, day eight",eliminated
same,"K+ retention, less than wild type mice with DOCP treatment","[3]; HKα1,2−/− mice, day eight, overall balance",~40%
same,Overall Na+ retention versus wild type or HKα1−/− mice,"[3]; HKα1,2−/− mice, eighth day of DOCP treatment",significantly less
same,increase of fecal K+ loss with DOCP treatment,"[3]; HKα1−/− and HKα1,2−/− mice, versus control period",~50%
same,Urine volume by the end of DOCP treatment,[3]; HKα1−/− mice,considerably decreased
same,DOCP-induced body weight gain relative to wild type,"[3]; HKα1−/− mice, day eight, normal diet",augmented nearly two-fold
same,"dry stool weight, more than wild type or HKα1,2−/− mice when treated with DOCP","[3]; HKα1−/− mice, pair fed",50%
same,Urine volume by the end of DOCP treatment,"[3]; wild type and HKα1,2−/− mice",doubled
same,overall Na+ balance with DOCP treatment,[3]; wild type mice,increased
same,overall survival at 60 days,"[4]; HKα1,2−/− mice (seven)",57%
same,deaths over 60 days,[4]; nine WT mice,no deaths
